Laboratory results from PMC5869712 (Scientific Reports, 2018).

How the values were obtained:
ITK = target: T1, ITK (Homo sapiens, UniProt Q08881); assay: Cys-containing kinase family panel (EurofinsCerep); format: biochemical
T1 construct: EurofinsCerep (contract assay service)

[1] = system: other kinases of the conserved cysteine panel (BMX, BTK, ITK, TXK, TEC, BLK, EGFR, ERBB4, ERBB2); assay: Cys-containing kinase family panel, kinases other than JAK3 taken together; format: biochemical; conditions: 1 µM
Description: (§1) The assay protocol guides are commercially available from ChemPartner.

Abl = target: T2, Abl (Homo sapiens, UniProt P00519); assay: Eurofins Kinase Profiler panel; format: biochemical; conditions: read-out: % inhibition (1μM), DMSO control=100%, lower=stronger
T2 construct: purchased Eurofins KinaseProfiler (Eurofins Pharma Discovery Services UK, Dundee); JAK3 also ChemPartner

GRK5 = target: T3, GRK5 (Homo sapiens, UniProt P34947); assay: Eurofins Kinase Profiler panel; format: biochemical; conditions: read-out: % inhibition (1μM), DMSO control=100%, lower=stronger
T3 construct: purchased Eurofins KinaseProfiler (Eurofins Pharma Discovery Services UK, Dundee); JAK3 also ChemPartner
T3 sequence (P34947 whole entry): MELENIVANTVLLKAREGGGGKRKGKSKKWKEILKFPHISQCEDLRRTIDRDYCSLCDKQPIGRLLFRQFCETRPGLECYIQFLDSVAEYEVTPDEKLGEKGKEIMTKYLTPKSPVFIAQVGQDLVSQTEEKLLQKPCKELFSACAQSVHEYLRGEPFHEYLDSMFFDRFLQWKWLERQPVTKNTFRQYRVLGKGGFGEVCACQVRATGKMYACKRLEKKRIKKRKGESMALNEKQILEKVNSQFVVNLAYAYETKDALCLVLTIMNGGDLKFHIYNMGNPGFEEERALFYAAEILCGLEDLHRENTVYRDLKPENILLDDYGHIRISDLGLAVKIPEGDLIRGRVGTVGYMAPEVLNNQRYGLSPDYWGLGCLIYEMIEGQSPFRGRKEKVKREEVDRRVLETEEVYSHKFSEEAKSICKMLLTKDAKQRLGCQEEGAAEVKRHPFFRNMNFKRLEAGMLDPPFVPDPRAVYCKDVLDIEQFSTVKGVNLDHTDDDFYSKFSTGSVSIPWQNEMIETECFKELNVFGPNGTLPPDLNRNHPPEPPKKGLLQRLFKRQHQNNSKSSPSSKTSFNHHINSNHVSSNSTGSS

CDK6 = target: T4, CDK6 (Homo sapiens, UniProt Q00534); assay: Eurofins Kinase Profiler panel; format: biochemical; conditions: read-out: % inhibition (1μM), DMSO control=100%, lower=stronger
T4 construct: purchased Eurofins KinaseProfiler (Eurofins Pharma Discovery Services UK, Dundee); JAK3 also ChemPartner
Description: as §1

CDK7 = target: T5, CDK7 (Homo sapiens, UniProt P50613); assay: Eurofins Kinase Profiler panel; format: biochemical; conditions: read-out: % inhibition (1μM), DMSO control=100%, lower=stronger
T5 construct: purchased Eurofins KinaseProfiler (Eurofins Pharma Discovery Services UK, Dundee); JAK3 also ChemPartner
Description: as §1

CLK2 = target: T6, CLK2 (Homo sapiens, UniProt P49760); assay: Eurofins Kinase Profiler panel; format: biochemical
T6 construct: Eurofins Pharma Discovery Services UK Limited (Kinase Profiler service)
T6 sequence (P49760 whole entry): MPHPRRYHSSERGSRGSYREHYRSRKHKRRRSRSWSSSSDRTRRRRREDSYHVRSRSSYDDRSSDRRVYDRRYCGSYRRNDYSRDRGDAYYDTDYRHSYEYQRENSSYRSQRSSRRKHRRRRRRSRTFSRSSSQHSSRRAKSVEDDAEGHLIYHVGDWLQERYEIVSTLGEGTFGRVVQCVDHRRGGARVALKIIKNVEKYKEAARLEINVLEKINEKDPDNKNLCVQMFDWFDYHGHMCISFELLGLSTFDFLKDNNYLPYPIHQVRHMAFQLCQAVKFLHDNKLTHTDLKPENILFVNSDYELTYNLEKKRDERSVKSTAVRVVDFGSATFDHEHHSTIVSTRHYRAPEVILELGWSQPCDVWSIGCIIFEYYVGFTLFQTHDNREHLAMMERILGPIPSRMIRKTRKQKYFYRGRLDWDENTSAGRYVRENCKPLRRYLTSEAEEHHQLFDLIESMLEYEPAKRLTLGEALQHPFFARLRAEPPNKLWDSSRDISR
Description: as §1

CaMKK2 = target: T7, CaMKK2 (Homo sapiens, UniProt Q96RR4); assay: Eurofins Kinase Profiler panel; format: biochemical; conditions: read-out: % inhibition (1μM), DMSO control=100%, lower=stronger
T7 construct: purchased Eurofins KinaseProfiler (Eurofins Pharma Discovery Services UK, Dundee); JAK3 also ChemPartner
Description: as §1

DYRK1A = target: T8, DYRK1A (Homo sapiens, UniProt Q13627); assay: Eurofins Kinase Profiler panel; format: biochemical; conditions: read-out: % inhibition (1μM), DMSO control=100%, lower=stronger
T8 construct: purchased Eurofins KinaseProfiler (Eurofins Pharma Discovery Services UK, Dundee); JAK3 also ChemPartner
Description: as §1

DYRK1B = target: T9, DYRK1B (Homo sapiens, UniProt Q9Y463); assay: Eurofins Kinase Profiler panel; format: biochemical; conditions: read-out: % inhibition (1μM), DMSO control=100%, lower=stronger
T9 construct: Eurofins Pharma Discovery Services UK Limited (Kinase Profiler service)
Description: as §1

GSK3α = target: T10, GSK3α (Homo sapiens, UniProt P49840); assay: Eurofins Kinase Profiler panel; format: biochemical; conditions: read-out: % inhibition (1μM), DMSO control=100%, lower=stronger
T10 construct: purchased Eurofins KinaseProfiler (Eurofins Pharma Discovery Services UK, Dundee); JAK3 also ChemPartner
Description: as §1

Mer = target: T11, Mer (Homo sapiens, UniProt Q12866); assay: Eurofins Kinase Profiler panel; format: biochemical; conditions: read-out: % inhibition (1μM), DMSO control=100%, lower=stronger
T11 construct: purchased Eurofins KinaseProfiler (Eurofins Pharma Discovery Services UK, Dundee); JAK3 also ChemPartner
Description: as §1

NEK2 = target: T12, NEK2 (Homo sapiens, UniProt P51955); assay: Eurofins Kinase Profiler panel; format: biochemical; conditions: read-out: % inhibition (1μM), DMSO control=100%, lower=stronger
T12 construct: purchased Eurofins Pharma Discovery Services UK Limited (Kinase Profiler screening platform)
Description: as §1

PAK4 = target: T13, PAK4 (Homo sapiens, UniProt O96013); assay: Eurofins Kinase Profiler panel; format: biochemical; conditions: read-out: % inhibition (1μM), DMSO control=100%, lower=stronger
T13 construct: purchased Eurofins Pharma Discovery Services UK Limited (Kinase Profiler screening platform)
Description: as §1

PKBα = target: T14, PKBα (Homo sapiens, UniProt P31749); assay: Eurofins Kinase Profiler panel; format: biochemical; conditions: read-out: % inhibition (1μM), DMSO control=100%, lower=stronger
T14 construct: purchased Eurofins KinaseProfiler (Eurofins Pharma Discovery Services UK, Dundee); JAK3 also ChemPartner
Description: as §1

PKCζ = target: T15, PKCζ (Homo sapiens, UniProt Q05513); assay: Eurofins Kinase Profiler panel; format: biochemical; conditions: read-out: % inhibition (1μM), DMSO control=100%, lower=stronger
T15 construct: purchased Eurofins KinaseProfiler (Eurofins Pharma Discovery Services UK, Dundee); JAK3 also ChemPartner
Description: as §1

PKG1α = target: T16, PKG1α (Homo sapiens, UniProt Q13976); assay: Eurofins Kinase Profiler panel; format: biochemical
T16 construct: Eurofins Pharma Discovery Services UK Limited (Kinase Profiler service)
T16 sequence (Q13976 whole entry): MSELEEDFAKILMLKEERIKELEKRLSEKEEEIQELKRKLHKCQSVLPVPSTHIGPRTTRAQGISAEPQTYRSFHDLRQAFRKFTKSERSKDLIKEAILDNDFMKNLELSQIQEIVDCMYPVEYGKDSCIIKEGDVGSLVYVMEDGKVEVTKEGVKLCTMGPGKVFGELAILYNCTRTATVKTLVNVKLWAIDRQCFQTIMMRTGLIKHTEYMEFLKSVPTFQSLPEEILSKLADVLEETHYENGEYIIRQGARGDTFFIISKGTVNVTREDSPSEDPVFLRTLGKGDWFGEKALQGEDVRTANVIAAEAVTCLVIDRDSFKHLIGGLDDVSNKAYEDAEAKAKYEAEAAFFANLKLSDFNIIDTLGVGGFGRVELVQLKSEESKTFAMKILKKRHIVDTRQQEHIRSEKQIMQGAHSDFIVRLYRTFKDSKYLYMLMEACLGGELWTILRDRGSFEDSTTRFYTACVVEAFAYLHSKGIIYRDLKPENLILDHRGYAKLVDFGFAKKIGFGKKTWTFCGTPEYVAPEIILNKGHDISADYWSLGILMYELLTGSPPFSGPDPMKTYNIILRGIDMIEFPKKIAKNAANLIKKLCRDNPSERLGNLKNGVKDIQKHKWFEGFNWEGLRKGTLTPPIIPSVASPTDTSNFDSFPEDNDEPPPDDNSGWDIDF
Description: as §1

PRK2 = target: T17, PRK2 (Homo sapiens, UniProt Q16513); assay: Eurofins Kinase Profiler panel; format: biochemical; conditions: read-out: % inhibition (1μM), DMSO control=100%, lower=stronger
T17 construct: purchased Eurofins KinaseProfiler (Eurofins Pharma Discovery Services UK, Dundee); JAK3 also ChemPartner
Description: as §1

Pim-2 = target: T18, Pim-2 (Homo sapiens, UniProt Q9P1W9); assay: Eurofins Kinase Profiler panel; format: biochemical; conditions: read-out: % inhibition (1μM), DMSO control=100%, lower=stronger
T18 construct: purchased Eurofins KinaseProfiler (Eurofins Pharma Discovery Services UK, Dundee); JAK3 also ChemPartner
Description: as §1

Plk3 = target: T19, Plk3 (Homo sapiens, UniProt Q9H4B4); assay: Eurofins Kinase Profiler panel; format: biochemical; conditions: read-out: % inhibition (1μM), DMSO control=100%, lower=stronger
T19 construct: purchased Eurofins KinaseProfiler (Eurofins Pharma Discovery Services UK, Dundee); JAK3 also ChemPartner
Description: as §1

ROCK-I = target: T20, ROCK-I (Homo sapiens, UniProt Q13464); assay: Eurofins Kinase Profiler panel; format: biochemical; conditions: read-out: % inhibition (1μM), DMSO control=100%, lower=stronger
T20 construct: purchased Eurofins KinaseProfiler (Eurofins Pharma Discovery Services UK, Dundee); JAK3 also ChemPartner
T20 sequence (Q13464 whole entry): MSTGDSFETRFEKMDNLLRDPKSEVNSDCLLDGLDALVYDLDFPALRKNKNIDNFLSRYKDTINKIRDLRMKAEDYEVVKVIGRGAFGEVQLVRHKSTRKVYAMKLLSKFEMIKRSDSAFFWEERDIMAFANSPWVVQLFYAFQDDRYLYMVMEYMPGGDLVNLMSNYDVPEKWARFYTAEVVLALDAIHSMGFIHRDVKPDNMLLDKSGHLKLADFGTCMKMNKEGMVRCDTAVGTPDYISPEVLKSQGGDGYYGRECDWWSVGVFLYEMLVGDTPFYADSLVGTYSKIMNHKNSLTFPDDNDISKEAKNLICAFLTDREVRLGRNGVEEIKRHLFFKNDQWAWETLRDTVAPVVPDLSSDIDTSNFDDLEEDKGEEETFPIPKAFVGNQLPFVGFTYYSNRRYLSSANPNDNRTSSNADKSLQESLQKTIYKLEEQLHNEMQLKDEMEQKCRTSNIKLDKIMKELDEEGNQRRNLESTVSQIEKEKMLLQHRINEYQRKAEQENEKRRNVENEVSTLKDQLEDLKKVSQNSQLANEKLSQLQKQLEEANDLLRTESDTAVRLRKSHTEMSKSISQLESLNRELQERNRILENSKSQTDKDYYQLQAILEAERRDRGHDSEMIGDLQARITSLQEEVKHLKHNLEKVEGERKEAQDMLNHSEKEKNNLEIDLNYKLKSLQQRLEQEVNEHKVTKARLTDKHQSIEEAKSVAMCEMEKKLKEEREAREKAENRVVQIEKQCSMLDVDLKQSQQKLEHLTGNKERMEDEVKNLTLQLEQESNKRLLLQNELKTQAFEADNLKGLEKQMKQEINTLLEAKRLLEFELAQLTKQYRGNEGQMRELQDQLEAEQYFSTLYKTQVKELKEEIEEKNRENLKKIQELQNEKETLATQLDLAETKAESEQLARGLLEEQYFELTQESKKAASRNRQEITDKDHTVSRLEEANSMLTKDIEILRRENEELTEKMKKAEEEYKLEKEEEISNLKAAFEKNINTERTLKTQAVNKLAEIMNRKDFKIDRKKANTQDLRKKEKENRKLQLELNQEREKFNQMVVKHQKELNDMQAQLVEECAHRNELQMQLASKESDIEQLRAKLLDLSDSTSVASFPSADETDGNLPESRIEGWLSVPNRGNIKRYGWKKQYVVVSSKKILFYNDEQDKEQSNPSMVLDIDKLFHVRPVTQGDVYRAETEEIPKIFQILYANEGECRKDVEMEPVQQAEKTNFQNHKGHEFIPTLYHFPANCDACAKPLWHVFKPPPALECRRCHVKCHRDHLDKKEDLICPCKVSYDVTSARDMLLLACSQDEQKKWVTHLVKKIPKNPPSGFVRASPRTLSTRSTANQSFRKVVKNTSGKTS
Description: as §1

ROCK-II = target: T21, ROCK-II (Homo sapiens, UniProt O75116); assay: Eurofins Kinase Profiler panel; format: biochemical; conditions: read-out: % inhibition (1μM), DMSO control=100%, lower=stronger
T21 construct: purchased Eurofins KinaseProfiler (Eurofins Pharma Discovery Services UK, Dundee); JAK3 also ChemPartner
Description: as §1

Rsk2 = target: T22, Rsk2 (Homo sapiens, UniProt P51812); assay: Eurofins Kinase Profiler panel; format: biochemical; conditions: read-out: % inhibition (1μM), DMSO control=100%, lower=stronger
T22 construct: purchased Eurofins KinaseProfiler (Eurofins Pharma Discovery Services UK, Dundee); JAK3 also ChemPartner
Description: as §1

SAPK2a = target: T23, SAPK2a (Homo sapiens, UniProt Q16539); assay: Eurofins Kinase Profiler panel; format: biochemical; conditions: read-out: % inhibition (1μM), DMSO control=100%, lower=stronger
T23 construct: purchased Eurofins KinaseProfiler (Eurofins Pharma Discovery Services UK, Dundee); JAK3 also ChemPartner
Description: as §1

SAPK2b = target: T24, SAPK2b (Homo sapiens, UniProt Q15759); assay: Eurofins Kinase Profiler panel; format: biochemical; conditions: read-out: % inhibition (1μM), DMSO control=100%, lower=stronger
T24 construct: purchased Eurofins KinaseProfiler (Eurofins Pharma Discovery Services UK, Dundee); JAK3 also ChemPartner
T24 sequence (Q15759 whole entry): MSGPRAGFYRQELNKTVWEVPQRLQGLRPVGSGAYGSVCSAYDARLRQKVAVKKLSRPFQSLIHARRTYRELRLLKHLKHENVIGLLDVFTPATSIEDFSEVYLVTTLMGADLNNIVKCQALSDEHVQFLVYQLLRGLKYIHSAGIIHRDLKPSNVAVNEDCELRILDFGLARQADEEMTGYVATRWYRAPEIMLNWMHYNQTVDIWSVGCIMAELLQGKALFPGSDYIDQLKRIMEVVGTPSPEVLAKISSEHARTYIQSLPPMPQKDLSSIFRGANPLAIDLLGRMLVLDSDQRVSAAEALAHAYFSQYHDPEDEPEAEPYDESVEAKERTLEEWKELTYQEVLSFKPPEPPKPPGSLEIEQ
Description: as §1

SAPK4 = target: T25, SAPK4 (Homo sapiens, UniProt O15264); assay: Eurofins Kinase Profiler panel; format: biochemical; conditions: read-out: % inhibition (1μM), DMSO control=100%, lower=stronger
T25 construct: purchased Eurofins KinaseProfiler (Eurofins Pharma Discovery Services UK, Dundee); JAK3 also ChemPartner
Description: as §1

SGK = target: T26, SGK (Homo sapiens, UniProt O00141); assay: Eurofins Kinase Profiler panel; format: biochemical; conditions: read-out: % inhibition (1μM), DMSO control=100%, lower=stronger
T26 construct: purchased Eurofins KinaseProfiler (Eurofins Pharma Discovery Services UK, Dundee); JAK3 also ChemPartner
Description: as §1

STK33 = target: T27, STK33 (Homo sapiens, UniProt Q9BYT3); assay: Eurofins Kinase Profiler panel; format: biochemical; conditions: read-out: % inhibition (1μM), DMSO control=100%, lower=stronger
T27 construct: purchased Eurofins KinaseProfiler (Eurofins Pharma Discovery Services UK, Dundee); JAK3 also ChemPartner
Description: as §1

Syk = target: T28, Syk (Homo sapiens, UniProt P43405); assay: Eurofins Kinase Profiler panel; format: biochemical; conditions: read-out: % inhibition (1μM), DMSO control=100%, lower=stronger
T28 construct: Eurofins Pharma Discovery Services UK Limited (Kinase Profiler service)
Description: as §1

TBK1 = target: T29, TBK1 (Homo sapiens, UniProt Q9UHD2); assay: Eurofins Kinase Profiler panel; format: biochemical; conditions: read-out: % inhibition (1μM), DMSO control=100%, lower=stronger
T29 construct: purchased Eurofins Pharma Discovery Services UK Limited (Kinase Profiler screening platform)
T29 sequence (Q9UHD2 whole entry): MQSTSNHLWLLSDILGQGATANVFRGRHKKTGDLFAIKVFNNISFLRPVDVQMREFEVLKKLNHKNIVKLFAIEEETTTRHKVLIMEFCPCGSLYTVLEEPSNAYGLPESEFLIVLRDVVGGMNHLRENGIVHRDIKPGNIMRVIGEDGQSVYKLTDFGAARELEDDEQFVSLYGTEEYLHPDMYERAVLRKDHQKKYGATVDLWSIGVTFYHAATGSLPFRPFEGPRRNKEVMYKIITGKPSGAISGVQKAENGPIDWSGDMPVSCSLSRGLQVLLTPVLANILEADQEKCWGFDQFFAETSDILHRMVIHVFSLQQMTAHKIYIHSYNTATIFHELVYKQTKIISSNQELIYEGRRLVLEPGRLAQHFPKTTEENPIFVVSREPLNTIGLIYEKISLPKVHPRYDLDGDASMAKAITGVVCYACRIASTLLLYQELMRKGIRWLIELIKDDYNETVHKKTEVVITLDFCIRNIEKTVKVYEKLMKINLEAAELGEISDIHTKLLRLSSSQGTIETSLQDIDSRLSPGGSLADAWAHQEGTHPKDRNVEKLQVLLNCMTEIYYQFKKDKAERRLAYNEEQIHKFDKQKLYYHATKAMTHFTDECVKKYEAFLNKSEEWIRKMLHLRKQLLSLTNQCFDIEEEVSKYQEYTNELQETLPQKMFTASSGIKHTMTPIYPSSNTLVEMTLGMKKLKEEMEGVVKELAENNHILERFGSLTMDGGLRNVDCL
Description: as §1

TrkA = target: T30, TrkA (Homo sapiens, UniProt P04629); assay: Eurofins Kinase Profiler panel; format: biochemical; conditions: read-out: % inhibition (1μM), DMSO control=100%, lower=stronger
T30 construct: purchased Eurofins Pharma Discovery Services UK Limited (Kinase Profiler screening platform)
Description: as §1

TrkC = target: T31, TrkC (Homo sapiens, UniProt Q16288); assay: Eurofins Kinase Profiler panel; format: biochemical; conditions: read-out: % inhibition (1μM), DMSO control=100%, lower=stronger
T31 construct: purchased Eurofins Pharma Discovery Services UK Limited (Kinase Profiler screening platform)
T31 sequence (Q16288 32-839): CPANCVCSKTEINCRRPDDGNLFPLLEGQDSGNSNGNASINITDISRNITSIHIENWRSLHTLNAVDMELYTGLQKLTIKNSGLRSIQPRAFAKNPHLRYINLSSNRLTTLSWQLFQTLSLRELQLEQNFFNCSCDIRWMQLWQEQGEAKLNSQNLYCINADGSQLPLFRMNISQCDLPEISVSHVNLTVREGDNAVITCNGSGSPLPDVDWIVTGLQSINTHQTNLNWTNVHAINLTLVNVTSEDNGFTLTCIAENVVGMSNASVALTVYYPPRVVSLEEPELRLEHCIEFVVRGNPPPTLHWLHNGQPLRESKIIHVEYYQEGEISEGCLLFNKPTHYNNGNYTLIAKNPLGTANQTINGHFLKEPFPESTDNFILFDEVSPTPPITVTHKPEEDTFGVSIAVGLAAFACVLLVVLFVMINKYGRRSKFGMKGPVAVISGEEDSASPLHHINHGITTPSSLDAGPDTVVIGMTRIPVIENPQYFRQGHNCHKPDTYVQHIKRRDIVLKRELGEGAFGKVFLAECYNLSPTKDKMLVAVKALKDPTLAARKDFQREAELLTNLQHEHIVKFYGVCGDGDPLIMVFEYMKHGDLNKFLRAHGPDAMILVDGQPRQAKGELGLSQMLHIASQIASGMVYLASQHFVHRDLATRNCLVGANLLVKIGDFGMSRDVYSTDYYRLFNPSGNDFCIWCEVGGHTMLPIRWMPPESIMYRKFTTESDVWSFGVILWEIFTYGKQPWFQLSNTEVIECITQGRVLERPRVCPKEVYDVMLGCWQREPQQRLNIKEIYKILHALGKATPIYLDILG
Description: as §1

Wee1 = target: T32, Wee1 (Homo sapiens, UniProt P30291); assay: Eurofins Kinase Profiler panel; format: biochemical; conditions: read-out: % inhibition (1μM), DMSO control=100%, lower=stronger
T32 construct: purchased Eurofins Pharma Discovery Services UK Limited (Kinase Profiler screening platform)
Description: as §1

ZIPK = target: T33, ZIPK (Homo sapiens, UniProt O43293); assay: Eurofins Kinase Profiler panel; format: biochemical; conditions: read-out: % inhibition (1μM), DMSO control=100%, lower=stronger
T33 construct: purchased Eurofins Pharma Discovery Services UK Limited (Kinase Profiler screening platform)
Description: as §1

[2] = system: IL-2-induced STAT5 phosphorylation (JAK1/JAK3); assay: IL-2-induced pSTAT5 in total lymphocytes in hPBMCs, flow cytometry; format: cell-based; conditions: Homo sapiens, Lymphocyte, hPBMC total lymphocytes, trigger IL-2, readout pSTAT5
[3] = system: EPO-induced JAK/STAT5 phosphorylation in HEL cells (JAK2); assay: STAT5 phosphorylation induced by EPO in HEL cells, Western blot
[4] = system: IL-6-induced JAK/STAT3 phosphorylation in TF-1 cells (JAK1); assay: STAT3 phosphorylation induced by IL-6 in TF-1 cells, Western blot
[5] = system: IL-3-induced JAK/STAT5 phosphorylation in TF-1 cells (JAK2); assay: STAT5 phosphorylation induced by IL-3 in TF-1 cells, Western blot
[6] = read-out: % inhibition (1μM), 1 µM, DMSO control=100%, lower=stronger

Question: Which results are given for `C=CC(=O)N[C@@H]1CCCN(c2ncnc3[nH]ccc23)C1` [RB1]?
Answer: inhibition at 1 µM (ITK): -5.9%; inhibition of other kinases of the conserved cysteine panel [1]: less than 15%; activity at 1 µM (Abl): 112%; activity at 1 µM (GRK5): 94%; activity at 1 µM (CDK6): 100%; activity at 1 µM (CDK7): 95%; IC50 (CLK2; estimated): > 800 nM; activity at 1 µM (CLK2; [6]): 18%; activity at 1 µM (CaMKK2): 101%; activity at 1 µM (DYRK1A): 91%; activity at 1 µM (DYRK1B): 86%; activity at 1 µM (GSK3α): 82%; activity at 1 µM (Mer): 68%; activity at 1 µM (NEK2): 99%; activity at 1 µM (PAK4): 81%; activity at 1 µM (PKBα): 94%; activity at 1 µM (PKCζ): 106%; IC50 (PKG1α; estimated): > 800 nM; activity at 1 µM (PKG1α; [6]): 23%; activity at 1 µM (PRK2): 79%; activity at 1 µM (Pim-2): 98%; activity at 1 µM (Plk3): 99%; activity at 1 µM (ROCK-I): 88%; activity at 1 µM (ROCK-II): 88%; activity at 1 µM (Rsk2): 76%; activity at 1 µM (SAPK2a): 100%; activity at 1 µM (SAPK2b): 103%; activity at 1 µM (SAPK4): 95%; activity at 1 µM (SGK): 92%; activity at 1 µM (STK33): 93%; activity at 1 µM (Syk): 104%; activity at 1 µM (TBK1): 96%; activity at 1 µM (TrkA): 46%; activity at 1 µM (TrkC): 75%; activity at 1 µM (Wee1): 90%; activity at 1 µM (ZIPK): 107%; IC50 [2]: 105 nM; Selectivity JAK2/JAK3 ([3]; EPO, pSTAT5): > 1000; IC50 ([3]; Homo sapiens): > 50000 nM; IC50 ([4]; Homo sapiens, TF-1, read-out: IC50, STAT and JAK phosphorylation): > 50000 nM; Selectivity JAK1/JAK3 ([4]; TF-1, IL-6, pSTAT3): > 1000; IC50 ([5]; Homo sapiens): > 50000 nM; Selectivity JAK2/JAK3 ([5]; IL-3, pSTAT5): > 1000
